Laboratory results as given in US20230159510A1, “NOVEL PRMT5 INHIBITORS” (AMGEN INC., priority 2020, published 2023).
Where two headings read alike, the source gives them in different places.

Assays:
[1] = system: HCT116 MTAP null cells; assay: HCT116 proliferation assay, MTAP null cells (CellTiter-Glo, 6 days); type: cell-based; settings: 144 h, read-out: Protif_ HCT116-MTAP null IC50
Procedure, shortened: (§1)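 Luminescent viability signal was measured after continuous drug exposure. Before dosing, cells attached overnight (37° C, 5% CO2) in RPMI 1640 + 10% FBS. Dosing used 1:3 steps over 8 or 9 points, starting at 1 or 10 µM, with DMSO-only wells as control.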

[2] = target: PRMT5/MEP50 (Homo sapiens, UniProt O14744); assay: MTase-Glo methyl transferase assay, Method A (Histone H4 peptide, 1 µM MTA, 24 h pre-incubation); type: biochemical; parameters: made in house; settings: read-out: PRMT5 MTase Glo Ki (nM, Meth. A)
Procedure: Method A: The PRMT5 inhibitory activity of test compounds was determined using the MTase-Glo™ assay (Promega), which monitors the product (S-adenosyl homocysteine or SAH) of methyltransferase reactions. The PRMT5 MTase-Glo assay was conducted in a 384-well white ProxiPlate (PerkinElmer) in a total volume of 12 µL. The PRMT5 enzymatic reaction (in 4 µL) contained 10 nM PRMT5/MEP50 (produced at Amgen), 5 µM S-adenosyl methionine (SAM, Promega), 1 µM Histone H4 (1-21)-Lys(Biotin) (Anaspec), 1 µM 5′-methylthioadenosine (MTA, Sigma) and two-fold serially diluted compounds in a reaction buffer of 50 mM Tris (pH 8.0), 50 mM NaCl, 0.01% Tween 20, 0.01% BSA, and 1 mM DTT. Test compounds were pre-incubated with PRMT5/MEP50, SAM, and MTA for 24 hours before addition of Histone H4 peptide to initiate the PRMT5 reaction. The reaction was allowed to proceed for 2 hours at room temperature and was then terminated by addition of 2 µL of 3X MTase-Glo™ Reagent (Promega) and 150 µM EPZ015666 (Sigma). After a 30-minute incubation at room temperature, 6 µL of MTase-Glo™ Detection Solution (Promega) was added and the plate was incubated at room temperature for an additional 30 minutes. The light signal corresponding to the amount of SAH produced by the PRMT5 reaction was subsequently measured using an Envision multimode reader (PerkinElmer). IC50 and KI values were obtained by analyzing dose-response curves using Genedata Screener (Genedata).

[3] = system: HCT116 WT cells; assay: HCT116 proliferation assay, WT cells (CellTiter-Glo, 6 days); type: cell-based; settings: Homo sapiens, HCT-116, 144 h, read-out: Prolif_HCT116-WT IC50
Procedure, shortened: as §1

Sequence of PRMT5/MEP50 (O14744 whole entry): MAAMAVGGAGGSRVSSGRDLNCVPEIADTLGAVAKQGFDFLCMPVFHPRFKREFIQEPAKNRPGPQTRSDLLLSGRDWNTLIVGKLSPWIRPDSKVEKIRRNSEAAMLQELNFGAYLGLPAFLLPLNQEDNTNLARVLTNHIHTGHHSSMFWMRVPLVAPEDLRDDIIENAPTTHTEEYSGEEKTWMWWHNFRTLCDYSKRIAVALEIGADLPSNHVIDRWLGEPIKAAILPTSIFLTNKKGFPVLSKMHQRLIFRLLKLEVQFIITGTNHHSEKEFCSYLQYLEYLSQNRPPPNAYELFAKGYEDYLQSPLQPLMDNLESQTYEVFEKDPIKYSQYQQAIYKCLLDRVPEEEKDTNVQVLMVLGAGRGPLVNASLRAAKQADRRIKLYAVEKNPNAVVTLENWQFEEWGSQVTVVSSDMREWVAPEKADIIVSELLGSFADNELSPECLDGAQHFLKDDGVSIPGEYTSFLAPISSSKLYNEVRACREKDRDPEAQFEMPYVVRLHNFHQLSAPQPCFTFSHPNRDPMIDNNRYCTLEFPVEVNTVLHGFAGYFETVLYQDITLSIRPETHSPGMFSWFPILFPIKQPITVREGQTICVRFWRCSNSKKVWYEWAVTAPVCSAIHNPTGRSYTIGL
Sequence of PRMT5/MEP50 (Q9BQA1 whole entry partner): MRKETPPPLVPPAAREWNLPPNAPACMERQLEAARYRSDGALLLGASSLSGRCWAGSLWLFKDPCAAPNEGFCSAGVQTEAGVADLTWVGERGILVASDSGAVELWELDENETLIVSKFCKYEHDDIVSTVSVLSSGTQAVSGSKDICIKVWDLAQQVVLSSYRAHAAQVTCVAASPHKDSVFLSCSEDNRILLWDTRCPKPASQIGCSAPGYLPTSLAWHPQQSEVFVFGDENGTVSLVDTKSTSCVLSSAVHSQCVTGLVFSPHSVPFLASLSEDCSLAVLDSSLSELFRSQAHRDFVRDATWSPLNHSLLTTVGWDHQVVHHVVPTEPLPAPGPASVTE

| Compound | IC50 ([1]; HCT116-MTAP null) [nM] | Ki [2] [nM] | IC50 [3] [nM] | IC50 [1] [nM] |
| --- | --- | --- | --- | --- |
| Cc1cc2cc(C(=O)N(Cc3ccc(C(F)(F)F)cn3)[C@@H]3CCCc4nccnc43)ccc2nc1N (single isomer, unassigned) [Example 521] | 12 | 0.01 | 78 |  |
| Cc1cc2cc(C(=O)N(Cc3ccc(C(F)(F)F)cn3)[C@H]3CCCc4nccnc43)ccc2nc1N (single isomer, unassigned) [Example 522, 2-amino-3-methyl-N-((5 S)-5,6,7,8-tetrahydro-5-quinoxalinyl)-N-((5-(trifluoromethyl)-2-pyridinyl)methyl)-6-quinolinecarboxamide] | 868 | 49.9 | 5570 |  |
| Cc1cc2cc(C(=O)N(Cc3ccc(C#N)cn3)[C@@H]3CCCn4ncnc43)ccc2nc1N (single isomer, unassigned) [Example 523] | 334 | 0.35 | 6380 |  |
| Cc1cc2cc(C(=O)N(Cc3ccc(C(F)(F)F)nn3)[C@H](C)c3ncccc3Cl)ccc2nc1N (single isomer, unassigned) [Example 525] | 598 | 0.23 | 7610 |  |
| Cc1cc2cc(C(=O)N(Cc3cccc(C(F)(F)F)n3)[C@H](C)c3ncccn3)ccc2nc1N (single isomer, unassigned) [Example 526] | 323 | 0.33 | > 10000 |  |
| Cc1cc2cc(C(=O)N(Cc3ccc(C(F)(F)F)cn3)[C@@H]3CCCc4cn[nH]c43)ccc2nc1N (single isomer, unassigned) [Example 527] | 10 | 0.05 | 142 |  |
| Cc1cc2cc(C(=O)N(Cc3ccc(C(F)(F)F)cn3)[C@H](C)c3ncc(F)cn3)ccc2nc1N (single isomer, unassigned) [Example 528] | 58 | 0.14 | 899 |  |
| COC[C@@H](c1ccccn1)N(Cc1ccc(C(F)(F)F)cn1)C(=O)c1ccc2nc(N)c(C)cc2c1 (single isomer, unassigned) [Example 529] | 258 | 1.69 | 4240 |  |
| COC[C@H](c1ccccn1)N(Cc1ccc(C(F)(F)F)cn1)C(=O)c1ccc2nc(N)c(C)cc2c1 (single isomer, unassigned) [Example 530] | 108 | 0.18 | 1710 |  |
| Cc1cc2cc(C(=O)N(Cc3ccc(C#N)cn3)[C@H](C)c3ncn(C)n3)ccc2nc1N (single isomer, unassigned) [Example 531] | 78 | 0.1 | 2830 |  |
| Cc1cc2cc(C(=O)N(Cc3ccc(C(F)F)cn3)[C@H](C)c3cnn(C)n3)ccc2nc1N (single isomer, unassigned) [Example 532] | 45 | 0.02 | 894 |  |
| Cc1cc2cc(C(=O)N(Cc3ccc(C(F)(F)F)nn3)[C@H](C)c3cscn3)ccc2nc1N (single isomer, unassigned) [Example 533] | 19 | 0.02 | 755 |  |
| Cc1nc([C@@H](C)N(Cc2ccc(C(F)F)cn2)C(=O)c2ccc3nc(N)c(C)cc3c2)no1 (single isomer, unassigned) [Example 534] | 154 | 0.33 | 4020 |  |
| C[C@H](c1ncn(C)n1)N(Cc1ccc(C(F)F)cn1)C(=O)c1cnc2nc(N)c(Br)cc2c1 (single isomer, unassigned) [Example 535] | 552 | 0.34 | > 10000 |  |
| Cc1cc2cc(C(=O)N(Cc3ccc(Br)nn3)[C@H](C)c3ncn(C)n3)ccc2nc1N (single isomer, unassigned) [Example 536] | 44 | 0.02 | 1460 |  |
| C[C@H](c1ncccn1)N(Cc1ccc(C(F)(F)F)cn1)C(=O)c1ccc2nc(N)c(I)cc2c1 (single isomer, unassigned) [Example 544] | 21 | 0.08 | 723 |  |
| Cc1cc2cc(C(=O)N(Cc3cccnc3)Cc3ccc(C(F)(F)F)cn3)ccc2nc1N [Example 301, 2-amino-3-methyl-N-(3-pyridinylmethyl)-N-((5-(trifluoromethyl)-2-pyridinyl)methyl)-6-quinolinecarboxamide] | 872 | 1.22 | > 10000 |  |
| Cc1cc2cc(C(=O)N(Cc3ccccn3)Cc3ccc(C(F)(F)F)cn3)ccc2nc1N [Example 302, 2-amino-3-methyl-N-(2-pyridinylmethyl)-N-((5-(trifluoromethyl)-2-pyridinyl)methyl)-6-quinolinecarboxamide] | 359 | 0.3 | > 10000 |  |
| Cc1cc2cc(C(=O)N(Cc3ccc(C(F)(F)F)cn3)Cc3ncccc3Cl)ccc2nc1N [Example 303, 2-amino-N-((3-chloro-2-pyridinyl)methyl)-3-methyl-N-((5-(trifluoromethyl)-2-pyridinyl)methyl)-6-quinolinecarboxamide] | 32 | 0.01 | 600 |  |
| Cc1cc2cc(C(=O)N(Cc3ccc(C(F)(F)F)cn3)Cc3ncc(Cl)cc3F)ccc2nc1N [Example 304, 2-amino-N-((5-chloro-3-fluoro-2-pyridinyl)methyl)-3-methyl-N-((5-(trifluoromethyl)-2-pyridinyl)methyl)-6-quinolinecarboxamide] | 182 | 0.11 | 4100 |  |
| Cc1cc2cc(C(=O)N(Cc3ccc(C(F)(F)F)cn3)Cc3cnc(N)s3)ccc2nc1N [Example 305, 2-amino-N-((2-amino-1,3-thiazol-5-yl)methyl)-3-methyl-N-((5-(trifluoromethyl)-2-pyridinyl)methyl)-6-quinolinecarboxamide] | 268 | 15.1 | 8770 |  |
| Cc1cc2cc(C(=O)N(Cc3ccc(C(F)(F)F)cn3)Cc3ncn(C)n3)ccc2nc1N [Example 306, 2-amino-3-methyl-N-((1-methyl-1H-1,2,4-triazol-3-yl)methyl)-N-((5-(trifluoromethyl)-2-pyridinyl)methyl)-6-quinolinecarboxamide] | 401 | 0.76 | > 10000 |  |
| Cc1cc2cc(C(=O)N(Cc3ccc(C#N)cn3)CC3CC3)c(F)cc2nc1N [Example 307, 2-amino-N-((5-cyano-2-pyridinyl)methyl)-N-(cyclopropylmethyl)-7-fluoro-3-methyl-6-quinolinecarboxamide] | 349 | 1.88 | 7660 |  |
| Cc1cc2cc(C(=O)N(Cc3ncc(C(F)(F)F)cc3F)CC(C)C)ccc2nc1N [Example 308, 2-amino-N-((3-fluoro-5-(trifluoromethyl)-2-pyridinyl)methyl)-3-methyl-N-(2-methylpropyl)-6-quinolinecarboxamide] | 620 | 2.34 | > 10000 |  |
| Cc1cc2cc(C(=O)N(Cc3ccc(C(F)(F)F)cn3)[C@H](C)C3CC3)ccc2nc1N [Example 309, 2-amino-N-((1R)-1-cyclopropylethyl)-3-methyl-N-((5-(trifluoromethyl)-2-pyridinyl)methyl)-6-quinolinecarboxamide] | 644 | 2.35 | 7440 |  |
| Cc1cc2cc(C(=O)N(Cc3ccc(C(F)(F)F)cn3)Cc3ncccc3F)c(F)cc2nc1N [Example 310, 2-amino-7-fluoro-N-((3-fluoro-2-pyridinyl)methyl)-3-methyl-N-((5-(trifluoromethyl)-2-pyridinyl)methyl)-6-quinolinecarboxamide] | 67 | 0.29 | 1600 |  |
| Cc1cc2cc(C(=O)N(Cc3ccc(C(F)(F)F)cn3)CC3CC3)c(F)cc2nc1N [Example 311, 2-amino-N-(cyclopropylmethyl)-7-fluoro-3-methyl-N-((5-(trifluoromethyl)-2-pyridinyl)methyl)-6-quinolinecarboxamide] | 163 | 0.21 | 2840 |  |
| Cc1cc2cc(C(=O)N(Cc3ccc(C(F)(F)F)cn3)Cc3ncccc3F)ncc2nc1N [Example 312, 2-amino-N-((3-fluoro-2-pyridinyl)methyl)-3-methyl-N-((5-(trifluoromethyl)-2-pyridinyl)methyl)-1,7-naphthyridine-6-carboxamide] | 806 | 0.36 | > 10000 |  |
| Cc1cc2cc(C(=O)N(Cc3ccc(C(F)(F)F)cn3)CC(C)C)ncc2nc1N [Example 313, 2-amino-3-methyl-N-(2-methylpropyl)-N-((5-(trifluoromethyl)-2-pyridinyl)methyl)-1,7-naphthyridine-6-carboxamide] |  | 0.98 | > 10000 | 902 |
